Experimental data taken from ChEMBL document CHEMBL3046293, “Fungicidal Activities of -Methoxyphenylacetic Acid Derivatives” (2002).

Experiments:
Assay type in all cases: functional
[1] = system: Pseudoperonospora cubensis; assay: Fungicidal activity against Pseudoperonospora cubensis assessed as cucumber downy mildew disease control at 2 ppm foliar application 24 hr before inoculation onto the adaxial(treated) surface of leaf by preventive manner
[2] = system: Pseudoperonospora cubensis; assay: Fungicidal activity against Pseudoperonospora cubensis assessed as cucumber downy mildew disease control at 31.3 ppm foliar application 24 hr after inoculation by curative manner
[3] = system: Pseudoperonospora cubensis; assay: Fungicidal activity against Pseudoperonospora cubensis assessed as cucumber downy mildew disease control at 7.8 ppm foliar application 24 hr before inoculation onto the adaxial(treated) surface of leaf by preventive manner
[4] = system: Pseudoperonospora cubensis; assay: Fungicidal activity against Pseudoperonospora cubensis assessed as cucumber downy mildew disease control at 125 ppm foliar application 24 hr after inoculation by curative manner
[5] = system: Pseudoperonospora cubensis; assay: Fungicidal activity against Pseudoperonospora cubensis assessed as cucumber downy mildew disease control at 31.3 ppm foliar application 24 hr before inoculation onto the adaxial(treated) surface of leaf by preventive manner
[6] = system: Pseudoperonospora cubensis; assay: Fungicidal activity against Pseudoperonospora cubensis assessed as cucumber downy mildew disease control at 7.8 ppm foliar application 24 hr after inoculation by curative manner
[7] = system: Pseudoperonospora cubensis; assay: Fungicidal activity against Pseudoperonospora cubensis assessed as cucumber downy mildew disease control at 2 ppm foliar application 24 hr before inoculation onto the abaxial(treated) surface of leaf by preventive manner
[8] = system: Pseudoperonospora cubensis; assay: Fungicidal activity against Pseudoperonospora cubensis assessed as cucumber downy mildew disease control at 2 ppm foliar application 24 hr after inoculation by curative manner
[9] = system: Pseudoperonospora cubensis; assay: Fungicidal activity against Pseudoperonospora cubensis assessed as cucumber downy mildew disease control at 0.5 ppm foliar application 24 hr before inoculation onto the adaxial(treated) surface of leaf by preventive manner
[10] = system: Pseudoperonospora cubensis; assay: Fungicidal activity against Pseudoperonospora cubensis assessed as cucumber downy mildew disease control at 125 ppm foliar application 24 hr before inoculation onto the adaxial(treated) surface of leaf by preventive manner
[11] = system: Pseudoperonospora cubensis; assay: Fungicidal activity against Pseudoperonospora cubensis assessed as cucumber downy mildew disease control at 0.5 ppm foliar application 24 hr after inoculation by curative manner
[12] = system: Pseudoperonospora cubensis; assay: Fungicidal activity against Pseudoperonospora cubensis assessed as cucumber downy mildew disease control at 7.8 ppm foliar application 24 hr before inoculation onto the abaxial(treated) surface of leaf by preventive manner
[13] = system: Pseudoperonospora cubensis; assay: Fungicidal activity against Pseudoperonospora cubensis assessed as cucumber downy mildew disease control at 31.3 ppm foliar application 24 hr before inoculation onto the abaxial(treated) surface of leaf by preventive manner
[14] = system: Pseudoperonospora cubensis; assay: Fungicidal activity against Pseudoperonospora cubensis assessed as cucumber downy mildew disease control at 125 ppm foliar application 24 hr before inoculation onto the abaxial(treated) surface of leaf by preventive manner
[15] = system: Pseudoperonospora cubensis; assay: Fungicidal activity against Pseudoperonospora cubensis assessed as cucumber downy mildew disease control at 0.5 ppm foliar application 24 hr before inoculation onto the abaxial(treated) surface of leaf by preventive manner

`COC(=O)C(C)N(C(=O)Cc1ccccc1)c1c(C)cccc1C` (stereo not given) [BENALAXYL] showed an Activity [1] of 20%, an Activity [2] of 80% and an Activity [3] of 20%. It also gave an Activity [4] of 80%, an Activity [5] of 70% and an Activity [6] of 40%. The Activity [7] was 20%, the Activity [8] was 10% and the Activity [9] was 0%. It also gave an Activity [10] of 97%, an Activity [11] of 0% and an Activity [12] of 40%. The Activity [13] was 70%, the Activity [14] was 97% and the Activity [15] was 0%.
